# In paper PMC6949113, “Preclinical evaluation of AT-527, a novel guanosine nucleotide prodrug with potent, pan-genotypic activity against hepatitis C virus” (PLoS ONE, 2020):
# Marks after values point to notes of the source that are not given here.
# What was measured:
# [1] = Monkey PK study, liver and heart tissue levels; assay type: in vivo, cynomolgus monkey; conditions: for Mean Concentration at 4 hr Postdose, Liver / Liver/Heart Ratio / Mean Concentration at 4 hr Postdose, Heart: monkey; for Liver/Heart Ratio: 4 h; for Mean Concentration at 4 hr Postdose, Heart: footnoted values extrapolated below LLOQ
# Excerpt: (§1) Monkey PK study. Male non-naïve cynomolgus monkeys were obtained from Hainan Jingang Laboratory Animal Co., Ltd. (Hainan, China), group housed during the 5-day acclimation period or individually housed during the study in stainless steel mesh cages, provided ad libitum access to RO water, fed twice daily (~120 g Certified Monkey Diet daily; Beijing Vital Keao Feed Co., Ltd., Beijing, China) and given daily treats of fresh fruit. Additional environmental enrichment included classical music and cartoons. Three groups of 5 monkeys each were administered 30, 100 or 300 mg/kg AT-527 as a powder filled in empty porcine hard gelatin capsules (size 0). The monkeys were fasted overnight prior to dosing and fed 4 h after dosing. Three dosages were selected to provide assessments of dose proportionality, the top two representing potential doses for a repeated oral dose toxicity study in monkeys, and the lowest predicted to be more therapeutically relevant. A pill gun was used to place the capsule beyond the root of the animals’ tongues and their mouths were held loosely closed for approximately 30 sec to allow them to move the jaw and swallow the capsule. Immediately following capsule administration, 20 mL of water was given by mouth and then the mouth was opened to ensure the capsule was swallowed. Blood samples (~0.6 mL) were collected up to 72 h from three animals per dose group, and up to 4 h from the remaining two animals in each group, at the same time points described for rats. […] Blood samples were collected with a syringe from a peripheral blood vessel from restrained, non-sedated animals, immediately transferred to pre-chilled tubes containing ~1 mg K2EDTA•2H20 and 20 μL of 5 mM dichlorvos solution, mixed and placed on ice until plasma was prepared by centrifugation as described for rats. Immediately after centrifugation, plasma samples were extracted with 4 volumes ISS2, and the supernatants were clarified by centrifugation (12,000 rpm, 10 min, 4°C) and stored at ≤ -60°C until analyzed by LC-MS/MS as described below. After the 4-hr blood collection, two monkeys per dose group were anesthetized with intravenous injection of pentobarbital sodium (60 mg/kg) and then euthanized as described for rats. […] All analytes were quantitated by LC-MS/MS as described below.
# For the analysis of AT-9010 in rat tissue homogenate supernatant, aliquots were diluted 1:2 with water and injected onto an Agilent Zorbax Extend C18 5 μm, 2.1 × 50 mm column and a Sciex API 4000 mass spectrometer (ESI positive ion, MRM mode). Mobile phases A (0.001% ammonia and 0.18 mM DBAA in water (1:1, v/v) and B (10 mM dimethylhexylamine (DMHA) and 3 mM AA in 50% ACN in water) were used to elute samples (60 μL) at 0.7 mL/min with 2% B for 0.8 min followed by a linear gradient to 30% B over 0.4 min, isocratic elution at 30% B for 0.4 min, a linear gradient to 95% B over 0.4 min, and ending with 95% B for 0.4 min. The analysis of AT-9010 in monkey tissue homogenate supernatant was the same except the sample injection volume was 20 μL. Attempts to measure tissue levels of other potentially formed TPs, including 2,6-diaminopurine-2’-F-2’-C-methylribosyl-5’-triphosphate and 2-amino-6-methylaminopurine-2’-F-2’-C-methylribosyl-5’-triphosphate (M2-TP), also used this method.
# For the analysis of M2 and M3 in monkey tissue homogenate supernatant, aliquots were diluted 1:3 with water and injected onto an Acuity HSS T3 1.8 μm, 2.1 × 50 mm column and a Sciex API 6500 mass spectrometer (ESI positive ion, MRM mode). Mobile phases A (0.3% FA and 10 mM AA in water and B (0.3% FA and 10 mM AA in 95% ACN in water) were used to elute samples (1 μL) at 0.6 mL/min with 0% B for 0.4 min followed by linear gradients to 30% B over 0.5 min and to 95% B over 0.2 min, ending with isocratic elution at 95% B for 0.4 min.
# Monkey PK study, plasma = assay type: in vivo, cynomolgus monkey; conditions: for plasma concentration: male cynomolgus monkeys; for AUC(0-t) / Cmax / MRT last / Tmax: male, cynomolgus, cynomolgus monkey, in vivo, po
# Excerpt: as §1
# LC-MS/MS analysis of rat and monkey plasma and tissue homogenate supernatants. For the analysis of AT-511 in rat plasma, aliquots were extracted with 10 volumes ISS2. The supernatants were clarified by centrifugation (4000 rpm for 10 min at 4°C) and 3 μL samples were injected onto an Acuity BEH C18 1.7 μm, 2.1 × 50 mm column and a Sciex API 4000 mass spectrometer (ESI positive ion, MRM mode). Mobile phases A (0.025% formic acid (FA) and 1 mM ammonium acetate (AA) in 5% ACN in water) and B (0.025% FA and 1 mM AA in 95% ACN in water) were used to elute samples (3 μL) at 0.6 mL/min with 10% B for 0.3 min followed by linear gradients to 60% B over 0.6 min and to 90% B over 0.2 min, and ending with 90% B for 0.4 min.
# PK data analysis. […] The linear/log trapezoidal rule was applied in obtaining the PK parameters.
# [2] = Rat pharmacokinetic study, plasma; assay type: in vivo, Sprague-Dawley rat; conditions: for plasma concentration, individual rats: AT-527 500 mg/kg oral, male 1-3, female 7-9, BQL: <0.0017 AT-511, <0.0022 M1, <0.0032 AT-273, M4
# [3] = Intracellular metabolism in human hepatocytes; assay type: in vitro ADME
# Method: Hepatocytes. […] Cryopreserved male mouse (CD1), and fresh male Beagle dog and male cynomolgus monkey hepatocytes were obtained from BioreclamationIVT (Baltimore, MD) and were similarly plated with Matrigel in 6- or 24-well plates and maintained overnight in InVitroGRO™HI medium with Torpedo™ antibiotic (BioreclamationIVT). The protocol described above for measuring AT-511 and its metabolites in Huh-7 cells was repeated with the five different hepatocytes. Untreated cells were collected at 24 h, and the protein content of the cell lysates were determined using a bicinchoninic acid protein assay kit to assess the number of cells in each incubation. Separately, plated human hepatocytes were incubated for 6 h with 100 μM AT-511, followed by washout periods of 0, 2, 6, 18 and 30 h.
# S3 Protocol. LC-MS/MS analysis of AT-511 and metabolites in cultured cells. The supernatant extracts of each hepatocyte and Huh-7 cell incubation were separately analyzed by four different LC-MS/MS methods for quantitation of phosphoramidates, nucleosides, monophosphates, and triphosphates (methods 1, 2, 3 and 4, respectively), using synthetic reference standards of actually and potentially present compounds and using structurally related analogs as internal standards. Briefly, a Luna PFP (2), 5 µm, 100 x 4.6 mm column and an AB Sciex API-6500 mass spectrometer (ESI positive ion, MRM mode) were used for methods 1-3 and an XBridge Oligonucleotide, BEH C18, 2.5 µm, 50 x 2.1 mm column and a Thermo QE Plus mass spectrometer (electrospray, negative ion mode) were used for method 4. For methods 1 and 2, mobile phases A (10 mM ammonium acetate in water) and B (acetonitrile:methanol, 1:1, v/v) were used to elute samples (5 µL) at 1 mL/min with 15% B for 1.5 min followed by a linear gradient to 75% B over 1 min (method 1) or with 54% B for 1.3 min followed by a linear gradient to 90% B over 1.2 min. Method 3 was the same except mobile phase A was 0.3% acetic acid in water, […] and samples were eluted with 3% B for 3 min followed by a linear gradient to 55% B over 1.2 min. For method 4, mobile phase A (3 mM ammonium formate with 10 mM dimethylhexylamine (DMHA) in water) and mobile phase B (3 mM ammonium formate with 10 mM DMHA in acetonitrile:water, 1:1, v/v) were used to elute samples at 0.4 mL/min with 0% B for 1.5 min followed by a linear gradient to 100% B over 2 min and ending with an isocratic elution for 0.5 min at 100% B.
# [4] = both sexes, Sprague-Dawley, rat, in vivo, po, 500 mg/kg
smiles,measurement,setting,value
C[C@@]1(F)[C@H](O)[C@@H](COP(=O)(O)O)O[C@H]1n1cnc2c(=O)[nH]c(N)nc21 [M3],"Mean Concentration at 4 hr Postdose, Liver",[1]; AT-527 30 mg/kg oral,78.8 pmol/g
same,Liver/Heart Ratio,[1]; AT-527 30 mg/kg oral,11^a
same,"Mean Concentration at 4 hr Postdose, Heart",[1]; AT-527 30 mg/kg oral,7.5^a pmol/g
same,"Mean Concentration at 4 hr Postdose, Liver",[1]; AT-527 100 mg/kg oral,203 pmol/g
same,Liver/Heart Ratio,[1]; AT-527 100 mg/kg oral,26^a
same,"Mean Concentration at 4 hr Postdose, Heart",[1]; AT-527 100 mg/kg oral,7.9^a pmol/g
same,"Mean Concentration at 4 hr Postdose, Liver",[1]; AT-527 300 mg/kg oral,1180 pmol/g
same,Liver/Heart Ratio,[1]; AT-527 300 mg/kg oral,72
same,"Mean Concentration at 4 hr Postdose, Heart",[1]; AT-527 300 mg/kg oral,16.5 pmol/g
CNc1nc(N)nc2c1ncn2[C@@H]1O[C@H](CO[P@](=O)(O)N[C@@H](C)C(=O)O)[C@@H](O)[C@@]1(C)F [M1],plasma concentration,"Monkey PK study, plasma; single oral AT-527 30 mg/kg, 0.500 h, monkey 1",BQL
same,plasma concentration,"Monkey PK study, plasma; single oral AT-527 30 mg/kg, 48.0 h, monkey 1",BQL
same,plasma concentration,"Monkey PK study, plasma; single oral AT-527 30 mg/kg, 48.0 h, monkey 2",BQL
same,plasma concentration,"Monkey PK study, plasma; single oral AT-527 30 mg/kg, 72.0 h, monkey 1",BQL
same,plasma concentration,"Monkey PK study, plasma; single oral AT-527 30 mg/kg, 72.0 h, monkey 2",BQL
same,plasma concentration,"Monkey PK study, plasma; single oral AT-527 30 mg/kg, 72.0 h, monkey 3",BQL
same,plasma concentration,"Monkey PK study, plasma; single oral AT-527 100 mg/kg, 48.0 h, monkey 1",BQL
same,plasma concentration,"Monkey PK study, plasma; single oral AT-527 100 mg/kg, 48.0 h, monkey 2",BQL
same,plasma concentration,"Monkey PK study, plasma; single oral AT-527 100 mg/kg, 72.0 h, monkey 1",BQL
same,plasma concentration,"Monkey PK study, plasma; single oral AT-527 100 mg/kg, 72.0 h, monkey 2",BQL
same,plasma concentration,"Monkey PK study, plasma; single oral AT-527 100 mg/kg, 72.0 h, monkey 3",BQL
same,plasma concentration,"Monkey PK study, plasma; single oral AT-527 300 mg/kg, 0.500 h, monkey 1",BQL
same,plasma concentration,"Monkey PK study, plasma; single oral AT-527 300 mg/kg, 48.0 h, monkey 2",BQL
same,plasma concentration,"Monkey PK study, plasma; single oral AT-527 300 mg/kg, 48.0 h, monkey 3",BQL
same,plasma concentration,"Monkey PK study, plasma; single oral AT-527 300 mg/kg, 72.0 h, monkey 1",BQL
same,plasma concentration,"Monkey PK study, plasma; single oral AT-527 300 mg/kg, 72.0 h, monkey 2",BQL
same,plasma concentration,"Monkey PK study, plasma; single oral AT-527 300 mg/kg, 72.0 h, monkey 3",BQL
same,AUC(0-t),"Monkey PK study, plasma; 30 mg/kg",5.44 ± 2.76 µM·h
same,Cmax,"Monkey PK study, plasma; 30 mg/kg",0.94 ± 0.61 µM
same,MRT last,"Monkey PK study, plasma; 30 mg/kg",7.06 ± 1.07 h
same,Tmax,"Monkey PK study, plasma; 30 mg/kg",4.67 ± 2.31 h
same,AUC(0-t),"Monkey PK study, plasma; 100 mg/kg",25.5 ± 10.1 µM·h
same,Cmax,"Monkey PK study, plasma; 100 mg/kg",4.24 ± 2.84 µM
same,MRT last,"Monkey PK study, plasma; 100 mg/kg",7.22 ± 0.48 h
same,AUC(0-t),"Monkey PK study, plasma; 300 mg/kg",35.6 ± 26.4 µM·h
same,Cmax,"Monkey PK study, plasma; 300 mg/kg",4.44 ± 4.74 µM
same,MRT last,"Monkey PK study, plasma; 300 mg/kg",11.4 ± 3.6 h
same,Tmax,"Monkey PK study, plasma; 300 mg/kg",4.67 ± 1.16 h
same,Liver/Heart Ratio,[1]; AT-527 30 mg/kg oral,3.7
same,Liver/Heart Ratio,[1]; AT-527 100 mg/kg oral,3.6
same,Liver/Heart Ratio,[1]; AT-527 300 mg/kg oral,5.6
same,"plasma concentration, individual rats",[2]; 48.0 h,BQL
same,"plasma concentration, individual rats",[2]; 72.0 h,BQL
same,AUC(0-t),[2]; [4],77.9 ± 20.3 µM·h
same,Cmax,[2]; [4],40.8 ± 9.7 µM
same,MRT last,[2]; [4],2.54 ± 0.41 h
same,Tmax,[2]; [4],0.58 ± 0.14 h
CNc1nc(N)nc2c1ncn2[C@@H]1O[C@H](COP(=O)(O)O)[C@@H](O)[C@@]1(C)F [M2],"Mean Concentration at 4 hr Postdose, Liver",[1]; AT-527 30 mg/kg oral,103 pmol/g
same,Liver/Heart Ratio,[1]; AT-527 30 mg/kg oral,19^a
same,"Mean Concentration at 4 hr Postdose, Heart",[1]; AT-527 30 mg/kg oral,5.4^a pmol/g
same,"Mean Concentration at 4 hr Postdose, Liver",[1]; AT-527 100 mg/kg oral,479 pmol/g
same,Liver/Heart Ratio,[1]; AT-527 100 mg/kg oral,48^a
same,"Mean Concentration at 4 hr Postdose, Heart",[1]; AT-527 100 mg/kg oral,9.9^a pmol/g
same,"Mean Concentration at 4 hr Postdose, Liver",[1]; AT-527 300 mg/kg oral,87.9 pmol/g
same,Liver/Heart Ratio,[1]; AT-527 300 mg/kg oral,13^a
same,"Mean Concentration at 4 hr Postdose, Heart",[1]; AT-527 300 mg/kg oral,6.6^a pmol/g
"CNc1nc(N)nc2c1ncn2[C@@H]1O[C@H](COP(=O)(O)OP(=O)(O)OP(=O)(O)O)[C@@H](O)[C@@]1(C)F [5’-TP of M2, 2-amino-6-methylaminopurine-2’-F-2’-C-methylribosyl-5’-triphosphate]",intracellular detection,[3],not detected
same,concentration in liver and heart tissue,"[1]; cynomolgus monkey, in vivo",< 110 pmol/g
CNc1nc(N)nc2c1ncn2[C@@H]1O[C@H](CO[P@@](=O)(N[C@@H](C)C(=O)OC(C)C)Oc2ccccc2)[C@@H](O)[C@@]1(C)F [AT-527],unusual or adverse clinical signs,"Monkey PK study, plasma; monkeys, single oral 30, 100 or 300 mg/kg",no such signs noted
same,unusual or adverse clinical signs,"[2]; rats, single oral 500 mg/kg",no such signs noted
